Test results: US8183251B2, “Hydantoin compounds and pharmaceutical compositions thereof” (AstraZeneca AB, priority 2006, dated 2012)
Structures can show the parent of a compound that is named as a salt.

Assays:
Type in all cases: biochemical
[1] = target: T1, human MMP14 catalytic domain (Homo sapiens, UniProt P50281); assay: Isolated enzyme assay MMP14 (fluorogenic substrate); conditions: IC50 (MMP14) divided by IC50 (MMP12)
T1 construct: Recombinant human MMP14 catalytic domain; made in house
Experimental: Recombinant human MMP14 catalytic domain may be expressed and purified as described by Parkar A. A. et al, (2000), Protein Expression and Purification, 20, 152. The purified enzyme can be used to monitor inhibitors of activity as follows: MMP14 (10 ng/ml final concentration) is incubated for 60 minutes at room temperature with the synthetic substrate Mca-Pro-Cha-Gly-Nva-His-Ala-Dpa-NH2 (10 μM) in assay buffer (0.1M “Tris-HCl” (trade mark) buffer, pH 7.5 containing 0.1M NaCl, 20 mM CaCl2, 0.020 mM ZnCl and 0.05% (w/v) “Brij 35” (trade mark) detergent) in the presence (5 concentrations) or absence of inhibitors. Activity is determined by measuring the fluorescence at λex 320 nm and λem 405 nm. Percent inhibition is calculated as follows: % Inhibition is equal to the [Fluorescenceplus inhibitor−Fluorescencebackground] divided by the [Fluorescenceminus inhibitor−Fluorescencebackground].

[2] = target: T2, human MMP19 catalytic domain (Homo sapiens, UniProt Q99542); assay: Isolated enzyme assay MMP19 (fluorogenic substrate); conditions: IC50 (MMP19) divided by IC50 (MMP12)
T2 construct: Recombinant human MMP19 catalytic domain; made in house
T2 sequence (Q99542 98-256 limits assumed): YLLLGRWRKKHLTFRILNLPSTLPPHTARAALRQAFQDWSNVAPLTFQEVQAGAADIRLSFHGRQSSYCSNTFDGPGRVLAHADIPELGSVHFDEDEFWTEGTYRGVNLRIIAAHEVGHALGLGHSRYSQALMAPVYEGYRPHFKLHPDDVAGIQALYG
Experimental: Recombinant human MMP19 catalytic domain may be expressed and purified as described by Parkar A. A. et al, (2000), Protein Expression and Purification, 20:152. The purified enzyme can be used to monitor inhibitors of activity as follows: MMP19 (40 ng/ml final concentration) is incubated for 120 minutes at 35° C. with the synthetic substrate Mca-Pro-Leu-Ala-Nva-Dpa-Ala-Arg-NH2 (5 μM) in assay buffer (0.1M “Tris-HCl” (trade mark) buffer, pH 7.3 containing 0.1M NaCl, 20 mM CaCl2, 0.020 mM ZnCl and 0.05% (w/v) “Brij 35” (trade mark) detergent) in the presence (5 concentrations) or absence of inhibitors. Activity is determined by measuring the fluorescence at λex 320 nm and λem 405 nm. Percent inhibition is calculated as follows: % Inhibition is equal to the [Fluorescenceplus inhibitor−Fluorescencebackground] divided by the [Fluorescenceminus inhibitor−Fluorescencebackground].

[3] = target: T3, human MMP12 catalytic domain (Homo sapiens, UniProt P39900); assay: Isolated enzyme assay MMP12 (fluorogenic substrate); conditions: recombinant human MMP12 catalytic domain, 60 minutes at room temperature; read-out: hMMP12 IC50
T3 construct: Recombinant human MMP12 catalytic domain; made in house
T3 sequence (P39900 106-263 limits assumed): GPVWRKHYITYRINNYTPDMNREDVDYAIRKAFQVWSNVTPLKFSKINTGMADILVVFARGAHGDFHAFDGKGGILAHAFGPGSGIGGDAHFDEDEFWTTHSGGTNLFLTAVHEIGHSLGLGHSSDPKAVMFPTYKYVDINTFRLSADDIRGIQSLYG
Experimental: Recombinant human MMP12 catalytic domain may be expressed and purified as described by Parkar A. A. et al, (2000), Protein Expression and Purification, 20, 152. The purified enzyme can be used to monitor inhibitors of activity as follows: MMP12 (50 ng/ml final concentration) is incubated for 60 minutes at room temperature with the synthetic substrate Mca-Pro-Cha-Gly-Nva-His-Ala-Dpa-NH2 (10 μM) in assay buffer (0.1M “Tris-HCl” (trade mark) buffer, pH 7.3 containing 0.1M NaCl, 20 mM CaCl2, 0.020 mM ZnCl and 0.05% (w/v) “Brij 35” (trade mark) detergent) in the presence (10 concentrations) or absence of inhibitors. Activity is determined by measuring the fluorescence at λex 320 nm and λem 405 nm. Percent inhibition is calculated as follows: % Inhibition is equal to the [Fluorescenceplus inhibitor−Fluorescencebackground] divided by the [Fluorescenceminus inhibitor−Fluorescencebackground].

[4] = system: human MMP9 catalytic domain; assay: Isolated enzyme assay MMP9 (fluorogenic substrate); conditions: IC50 (MMP9) divided by IC50 (MMP12)
Experimental: Recombinant human MMP9 catalytic domain was expressed and then purified by Zn chelate column chromatography followed by hydroxamate affinity column chromatography. The enzyme can be used to monitor inhibitors of activity as follows: MMP9 (5 ng/ml final concentration) is incubated for 30 minutes at RT with the synthetic substrate Mca-Pro-Cha-Gly-Nva-His-Ala-Dpa-NH2 (5 μM) in assay buffer (0.1M “Tris-HCl” (trade mark) buffer, pH 7.3 containing 0.1M NaCl, 20 mM CaCl2, 0.020 mM ZnCl and 0.05% (w/v) “Brij 35” (trade mark) detergent) in the presence (10 concentrations) or absence of inhibitors. Activity is determined by measuring the fluorescence at λex 320 nm and λem 405 nm. Percent inhibition is calculated as follows: […]
% Inhibition is equal to the [Fluorescenceplus inhibitor−Fluorescencebackground] divided by the [Fluorescenceminus inhibitor−Fluorescencebackground].
A protocol for testing against other matrix metalloproteinases, including MMP9, using expressed and purified pro MMP is described, for instance, by C. Graham Knight et al., (1992) FEBS Lett., 296 (3), 263-266.

hMMP8 = target: T4, hMMP8 (Homo sapiens, UniProt P22894); assay: Isolated enzyme assay MMP8 (fluorogenic substrate); conditions: IC50 (MMP8) divided by IC50 (MMP12)
T4 construct: purchased Calbiochem
T4 sequence (P22894 101-467): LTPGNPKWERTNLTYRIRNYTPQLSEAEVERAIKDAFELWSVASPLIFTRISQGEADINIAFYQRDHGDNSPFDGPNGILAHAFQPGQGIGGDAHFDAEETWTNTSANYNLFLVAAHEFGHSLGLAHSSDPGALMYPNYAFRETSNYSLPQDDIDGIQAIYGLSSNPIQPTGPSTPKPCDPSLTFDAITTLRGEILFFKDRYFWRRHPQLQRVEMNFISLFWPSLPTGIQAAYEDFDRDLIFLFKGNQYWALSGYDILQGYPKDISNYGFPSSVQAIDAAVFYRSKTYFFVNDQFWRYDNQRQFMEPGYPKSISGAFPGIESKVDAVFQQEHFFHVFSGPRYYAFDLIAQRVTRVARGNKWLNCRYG
Experimental: Purified pro-MMP8 is purchased from Calbiochem. The enzyme (at 10 μg/ml) is activated by p-amino-phenyl-mercuric acetate (APMA) at 1 mM for 2.5 h, 35° C. The activated enzyme can be used to monitor inhibitors of activity as follows: MMP8 (200 ng/ml final concentration) is incubated for 90 minutes at 35° C. (80% H2O) with the synthetic substrate Mca-Pro-Cha-Gly-Nva-His-Ala-Dpa-NH2 (12.5 μM) in assay buffer (0.1M “Tris-HCl” (trade mark) buffer, pH 7.5 containing 0.1M NaCl, 30 mM CaCl2, 0.040 mM ZnCl and 0.05% (w/v) “Brij 35” (trade mark) detergent) in the presence (10 concentrations) or absence of inhibitors. Activity is determined by measuring the fluorescence at λex 320 nm and λem 405 nm. Percent inhibition is calculated as follows: % Inhibition is equal to the [Fluorescenceplus inhibitor−Fluorescencebackground] divided by the [Fluorescenceminus inhibitor−Fluorescencebackground].

## CN(Cc1ccc(Oc2cnc(C(F)(F)F)nc2)cc1)S(=O)(=O)C[C@@]1(C2CC2)NC(=O)NC1=O [Example 4, 1-[(4S)-4-Cyclopropyl-2,5-dioxoimidazolidin-4-yl]-N-methyl-N-[(4-{[2-(trifluoromethyl)pyrimidin-5-yl]oxy}phenyl)methyl]methanesulfonamide]
[1]
  Selectivity for inhibition of hMMP12 over: hMMP14: >3560
[2]
  Selectivity for inhibition of hMMP12 over: hMMP19: >2882
[3]
  IC50: 8.3 nM
[4]
  Selectivity for inhibition of hMMP12 over: hMMP9: >795
hMMP8
  Selectivity for inhibition of hMMP12 over: hMMP8: >1168

## C[C@]1(CS(=O)(=O)NCc2ccc(Oc3ccccc3)cc2)NC(=O)NC1=O [reference compound]
[1]
  Selectivity for inhibition of hMMP12 over: hMMP14: >330
[2]
  Selectivity for inhibition of hMMP12 over: hMMP19: >330
[3]
  IC50: 151 nM
[4]
  Selectivity for inhibition of hMMP12 over: hMMP9: 261
hMMP8
  Selectivity for inhibition of hMMP12 over: hMMP8: 202

## O=C1NC(=O)[C@](CS(=O)(=O)NCc2ccc(Oc3cnc(C(F)(F)F)nc3)cc2)(C2CC2)N1 [Example 6, 1-[(4S)-4-Cyclopropyl-2,5-dioxoimidazolidin-4-yl]-N-[(4-{[2-(trifluoromethyl)pyrimidin-5-yl]oxy}benzyl)]methane sulfonamide]
[3]
  IC50: 63.7 nM
[4]
  Selectivity for inhibition of hMMP12 over: hMMP9: 1530
hMMP8
  Selectivity for inhibition of hMMP12 over: hMMP8: 657

## CCc1ncc(Oc2ccc(CN(C)S(=O)(=O)C[C@@]3(C4CC4)NC(=O)NC3=O)cc2)cn1 [Example 5, 1-[(4S)-4-Cyclopropyl-2,5-dioxoimidazolidin-4-yl]-N-({4-[(2-ethylpyrimidin-5-yl)oxy]phenyl}methyl)-N-methylmethanesulfonamide]
[1]
  Selectivity for inhibition of hMMP12 over: hMMP14: >588
[2]
  Selectivity for inhibition of hMMP12 over: hMMP19: >588
[3]
  IC50: 17 nM
[4]
  Selectivity for inhibition of hMMP12 over: hMMP9: 523
hMMP8
  Selectivity for inhibition of hMMP12 over: hMMP8: 417

## CN(Cc1ccc(Oc2cncnc2)cc1)S(=O)(=O)C[C@@]1(C2CC2)NC(=O)NC1=O [Example 1, 1-[(4S)-4-Cyclopropyl-2,5-dioxoimidazolidin-4-yl]-N-methyl-N-{[4-(pyrimidin-5-yloxy)phenyl]methyl}methanesulfonamide trifluoroacetic acid salt]
[1]
  Selectivity for inhibition of hMMP12 over: hMMP14: >525
[2]
  Selectivity for inhibition of hMMP12 over: hMMP19: >525
[3]
  IC50: 19 nM
[4]
  Selectivity for inhibition of hMMP12 over: hMMP9: >525
hMMP8
  Selectivity for inhibition of hMMP12 over: hMMP8: 320

## Cc1ncc(Oc2ccc(CN(C)S(=O)(=O)C[C@@]3(C4CC4)NC(=O)NC3=O)cc2)cn1 [Example 3, 1-[(4S)-4-Cyclopropyl-2,5-dioxoimidazolidin-4-yl]-N-methyl-N-({4-[(2-methylpyrimidin-5-yl)oxy]phenyl}methyl)methanesulfonamide]
[1]
  Selectivity for inhibition of hMMP12 over: hMMP14: >7142
[2]
  Selectivity for inhibition of hMMP12 over: hMMP19: >2800
[3]
  IC50: 14 nM
[4]
  Selectivity for inhibition of hMMP12 over: hMMP9: 857
hMMP8
  Selectivity for inhibition of hMMP12 over: hMMP8: >628

## CN(Cc1ccc(Oc2cnc(C3CC3)nc2)cc1)S(=O)(=O)C[C@@]1(C2CC2)NC(=O)NC1=O [Example 2, 1-[(4S)-4-Cyclopropyl-2,5-dioxoimidazolidin-4-yl]-N-({4-[(2-cyclopropylpyrimidin-5-yl)oxy]phenyl}methyl)-N-methylmethanesulfonamide]
[1]
  Selectivity for inhibition of hMMP12 over: hMMP14: >2320
[2]
  Selectivity for inhibition of hMMP12 over: hMMP19: >2320
[3]
  IC50: 4.3 nM
[4]
  Selectivity for inhibition of hMMP12 over: hMMP9: 1440
hMMP8
  Selectivity for inhibition of hMMP12 over: hMMP8: 2120
